From US20220324862A1, “PYRIDOPYRIMIDINONE COMPOUNDS” (Acerand Therapeutics (USA) Limited, priority 2021, published 2022) come the findings set out here.

For this assay, the target named is T1, protein-protein interaction between SOS1 and KRAS-G12D (Homo sapiens, UniProt Q07889).
T1 construct: The purified GST-SOS1 catalytic domain (residues 564-1049) was first diluted in assay buffer; made in house; host or cells: E. coli BL21 (DE3) for SOS1; E. coli BL21 carrying a BirA plasmid for KRAS-G12D
T1 sequence (Q07889 564-1049): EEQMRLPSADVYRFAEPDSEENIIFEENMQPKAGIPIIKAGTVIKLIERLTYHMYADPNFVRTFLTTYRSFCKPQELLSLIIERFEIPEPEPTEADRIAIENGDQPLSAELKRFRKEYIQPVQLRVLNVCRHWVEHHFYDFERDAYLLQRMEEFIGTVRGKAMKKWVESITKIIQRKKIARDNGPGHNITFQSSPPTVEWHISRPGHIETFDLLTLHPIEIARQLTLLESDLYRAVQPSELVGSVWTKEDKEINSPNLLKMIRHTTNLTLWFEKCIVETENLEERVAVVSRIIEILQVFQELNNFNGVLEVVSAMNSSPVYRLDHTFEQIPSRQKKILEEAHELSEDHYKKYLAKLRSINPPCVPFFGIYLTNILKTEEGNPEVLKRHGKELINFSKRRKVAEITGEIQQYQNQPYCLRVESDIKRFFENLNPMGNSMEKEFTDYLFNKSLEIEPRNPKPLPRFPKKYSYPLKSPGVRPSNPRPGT
Briefly: HTRF Based Protein-Protein Interaction Assay. The assay is classed as binding. The note with it: HTRF; GST-SOS1 2.5 nM, KRAS-G12D 100 nM, GDP 10 uM; read-out: IC50 value, inhibition of SOS1/KRAS-G12D protein-protein interaction. An excerpt:
A KRAS-G12D and SOS1 binding/interaction assay was designed to measure the interaction between KRAS-G12D and SOS1 proteins. Utilizing HTRF (Homogeneous Time-Resolved Fluorescence) technology, the assay enabled simple and rapid characterization of compound and protein interaction in a high throughput format. This assay was used to examine potency of the compounds in inhibiting the protein-protein interaction between SOS1 and KRAS-G12D. […] Low IC50 values are indicative of high potency of the SOS1 inhibitor compound to disrupt SOS1 and Kras-G12D interaction.
Protein Expression and Purification. The corresponding gene sequence to human SOS1 (residues 564-1049, UniProt ID: Q07889; SEQ ID NO: 2) was synthesized and fused in frame with GST expression vector. After the desired sequence was confirmed, plasmid containing the sequence was transformed into the E. coli strain BL21 (DE3). Bacteria were growing at 37° C. in LB media containing 50 μg/ml Kanamycin to give OD600 of 0.6-0.8. Then 0.2 mM IPTG was added to induce protein expression for 16 hours at 17° C. Bacteria were harvested by centrifugation and stored at −80° C. Bacteria pellets were resuspended in lysis buffer (25 mM Tris-HCl, 500 mM NaCl, 2 mM DTT, 2.3% sucrose, 0.3% dextran-10, 1 mM PMSF, pH 7.5) and lysed using high-pressure homogenizer. The lysate was cleared by centrifugation for 30 minutes (12000 rpm at 4° C.). The supernatant containing GST-SOS1 fragment was purified sequentially through Glutathione column and gel filtration (Hiload 16/600 Superdex […] column, Cytiva). The purified GST-SOS1 fragment was confirmed by SDS-PAGE and stored in 25 mM Tris-HCl, 100 mM NaCl, 1 mM DTT, 2.3% sucrose, 0.3% dextran-10, pH 7.5 at −80° C.
Kras-G12D Protein Purification. The sequence corresponding to human KRAS-G12D (residues 1-169, UniProt P01116-2; SEQ ID NO: 1) was synthesized and fused in frame with His-AVI-TEV vector. The plasmid was transformed into the E. coli strain BL21 (containing a plasmid that can generate BirA enzyme). Bacteria were growing at 37° C. in TB media containing 100 μg/ml ampicillin and 50 μg/ml Kanamycin to give OD600 of 0.6-0.8. The 0.5 mM IPTG and 50 mg/l biotin were added to induce protein expression for 16 hours at 25° C. Bacteria were harvested by centrifugation and stored at −80° C. Bacteria pellets were re-suspended in lysis buffer (20 mM Tris-HCl, 500 mM NaCl, 5 mM MgCl2, 2 mM […], 5% glycerol, pH 8.0) and lysed using high-pressure homogenizer. The lysate was cleared by centrifugation for 30 minutes (12000 rpm at 4° C.). The supernatant containing HIS-AVI-TEV-KRAS-G12D fragment was purified sequentially through Ni-NTA column (SMART), Streptactin column (SMART), and gel filtration (Hiload 16/600 Superdex 75 pg, GE). The purified HIS-AVI-TEV-KRAS-G12D fragment was confirmed by SDS-PAGE and stored in 50 mM HEPES-NaOH, 100 mM NaCl, 1 mM DTT, 5 mM MgCl2, pH 7.5 at −80° C.
Protein-Protein Interaction Assay. An assay buffer containing 50 mM HEPES, pH 7.5, 50 mM NaCl, 0.01% Brij-35, 1 mM TCEP, 0.1% BSA was prepared, and concentration series of test compounds were generated spanning from 0.5 nM to 10 μM over 10 3-fold serial dilutions in a 384-well assay plate at a volume of 20 pL. The purified GST-SOS1 catalytic domain (residues 564-1049) was first diluted in assay buffer and 5 μl of SOS1 (final concentration 2.5 nM in assay mixture) was directly dispensed into compound plates. After a spin down at 1000 RPM for 30 seconds, the SOS1/compound mixture was incubated at 25° C. for 15 minutes to allow the reaction between SOS1 and the compound. A KRAS-G12D mixture was prepared by incubation of avi-tagged Kras-G12D (residue 1-169) and GDP in assay buffer containing 10 mM MgCl2 at room temperature for 10 minutes. A KRAS-G12D and GDP mixture (5 μL) was added to the assay plate (final KRAS-G12D was 100 nM and GDP was 10 uM). The plate was centrifuged at 1000 rpm for 30 sec and incubated at 25° C. for 60 minutes. […]
(In general: Time-resolved FRET reads energy transfer from a long-lived donor to a nearby acceptor.)

As to `C#C[C@@H](Nc1nc(C)nc2cc(=O)n(C3(C)CC3)cc12)c1cccc(C(C)(F)F)c1F` [Compound 19, (R)-4-((1-(3-(1,1-difluoroethyl)-2-fluorophenyl)prop-2-yn-1-yl)amino)-2-methyl-6-(1-methylcyclopropyl)pyrido[4,3-d]pyrimidin-7(6H)-one], the IC50 was below 100 nM. Next, `C#C[C@@H](Nc1nc(C)nc2cc(=O)n(C3CC(F)(F)C3)cc12)c1cccc(C(F)(F)F)c1C` [Compound 11, (R)-6-(3,3-difluorocyclobutyl)-2-methyl-4-((1-(2-methyl-3-(trifluoromethyl)phenyl)prop-2-yn-1-yl)amino)pyrido[4,3-d]pyrimidin-7(6H)-one]: below 100 nM.

With `C#C[C@@H](Nc1nc(C)nc2c(Br)c(=O)n(C3(C(F)F)CC3)cc12)c1cccc(C(F)F)c1C` [Compound 39, (R)-8-bromo-4-((1-(3-(difluoromethyl)-2-methylphenyl)prop-2-yn-1-yl)amino)-6-(1-(difluoromethyl)cyclopropyl)-2-methylpyrido[4,3-d]pyrimidin-7(6H)-one], the IC50 was below 100 nM.

In the case of `C#C[C@@H](Nc1nc(C)nc2cc(=O)n(N[C@H]3CCOC3)cc12)c1cccc(C(F)F)c1C` [Compound 16, 4-(((R)-1-(3-(difluoromethyl)-2-methylphenyl)prop-2-yn-1-yl)amino)-2-methyl-6-(((S)-tetrahydrofuran-3-yl)amino)pyrido[4,3-d]pyrimidin-7(6H)-one], the IC50 is 100 to 200 nM. The same measure for `C#C[C@@H](Nc1nc(C)nc2cc(=O)n(C3(C#C)CC3)cc12)c1cccc(C(F)(F)F)c1C` [Compound 5, (R)-6-(1-ethynylcyclopropyl)-2-methyl-4-((1-(2-methyl-3-(trifluoromethyl)phenyl)prop-2-yn-1-yl)amino)pyrido[4,3-d]pyrimidin-7(6H)-one]: below 100 nM; for `C#C[C@@H](Nc1nc(C)nc2cc(=O)n(C34CC(C3)C4)cc12)c1cccc2c1CCC2(F)F` [Compound 2, (R)-6-(bicyclo[1,1,1]pentan-1-yl)-4-((1-(1,1-difluoro-2,3-dihydro-1H-inden-4-yl)prop-2-yn-1-yl)amino)-2-methylpyrido[4,3-d]pyrimidin-7(6H)-one]: below 100 nM.

Regarding `C#C[C@@H](Nc1nc(C)nc2cc(=O)n(C3CC4(C3)CN(C)C4)cc12)c1cccc(C(F)F)c1C` [Compound 38, (R)-4-((1-(3-(difluoromethyl)-2-methylphenyl)prop-2-yn-1-yl)amino)-2-methyl-6-(2-methyl-2-azaspiro[3.3]heptan-6-yl)pyrido[4,3-d]pyrimidin-7(6H)-one], the IC50 was below 100 nM. Next, `C#C[C@@H](Nc1nc(C)nc2cc(=O)n(C3(C#C)CC3)cc12)c1cccc(C(F)F)c1F` [Compound 26, (R)-4-((1-(3-(difluoromethyl)-2-fluorophenyl)prop-2-yn-1-yl)amino)-6-(1-ethynlcyclopropyl)-2-methylpyrido [4,3-d]pyrimidin-7(6H)-one]: below 100 nM; `C#C[C@@H](Nc1nc(C)nc2c(C)c(=O)n(C3(C)CC3)cc12)c1cccc(C(F)(F)F)c1C` [Compound 28, (R)-2,8-dimethyl-4-((1-(2-methyl-3-(trifluoromethyl)phenyl)prop-2-yn-1-yl)amino)-6-(1-methylcyclopropyl)pyrido[4,3-d]pyrimidin-7(6H)-one]: below 100 nM.

`C#C[C@@H](Nc1nc(C)nc2cc(=O)n(C3(C)CCOC3)cc12)c1cccc(C(F)F)c1C` (mixture of isomers) [Compound 13, 4-(((R)-1-(3-(difluoromethyl)-2-methylphenyl)prop-2-yn-1-yl)amino)-2-methyl-6-(3-methyltetrahydrofuran-3-yl)pyrido[4,3-d]pyrimidin-7(6H)-one]: the IC50 is below 100 nM. Next, `C#C[C@@H](Nc1nc(C)nc2cc(=O)n(C3CCC3)cc12)c1cccc(C(F)(F)F)c1C` [Compound 3, (R)-6-cyclobutyl-2-methyl-4-((1-(2-methyl-3-(trifluoromethyl)phenyl)prop-2-yn-1-yl)amino)pyrido[4,3-d]pyrimidin-7(6H)-one]: below 100 nM. The same measure for `C#C[C@@H](Nc1nc(C)nc2cc(=O)n(C3(C(F)F)CC3)cc12)c1cccc(C#N)c1F` [Compound 42, (R)-3-(1-((6-(1-(difluoromethyl)cyclopropyl)-2-methyl-7-oxo-6,7-dihydropyrido[4,3-d]pyrimidin-4-yl)amino)prop-2-yn-1-yl)-2-fluorobenzonitrile]: below 100 nM. The same measure for `C#C[C@@H](Nc1nc(C)nc2cc(=O)n(C3(CF)CC3)cc12)c1cccc(C(F)F)c1F` [Compound 32, (R)-4-((1-(3-(difluoromethyl)-2-fluorophenyl)prop-2-yn-1-yl)amino)-6-(1-(fluoromethyl)cyclopropyl)-2-methylpyrido[4,3-d]pyrimidin-7(6H)-one]: below 100 nM; for `C#C[C@@H](Nc1nc(C)nc2cc(=O)n([C@H]3C[C@H](F)C3)cc12)c1cccc(C(F)(F)F)c1C` [Compound 10, 6-((1S,3S)-3-fluorocyclobutyl)-2-methyl-4-(((R)-1-(2-methyl-3-(trifluoromethyl)phenyl)prop-2-yn-1-yl)amino)pyrido[4,3-d]pyrimidin-7(6H)-one]: below 100 nM. As to `C#C[C@@H](Nc1nc(C)nc2cc(=O)n(C3CC(F)(F)C3)cc12)c1cccc(C(F)F)c1F` [Compound 29, (R)-6-(3,3-difluorocyclobutyl)-4-((1-(3-(difluoromethyl)-2-fluorophenyl)prop-2-yn-1-yl)amino)-2-methylpyrido[4,3-d]pyrimidin-7(6H)-one], the IC50 was below 100 nM.
